Earlier results, collected in patent publication US11446408B2, “Composition and methods for antimicrobial articles” (priority 2011, dated 2022).

Key:
Conditions in all cases: 10 minutes at 25 degrees Celsius
enteric viruses = system: enteric viruses
enteric bacteria = system: enteric bacteria
amoebic cysts = system: amoebic cysts

Compound: II [iodine]
- iodine sufficient to kill enteric viruses (enteric viruses): 14.6 PPM
- iodine sufficient to kill enteric bacteria (enteric bacteria): 0.2 PPM
- iodine sufficient to kill amoebic cysts (amoebic cysts): 3.5 PPM
